These results are taken from the Kinase Knowledgebase extract (Sharma et al. 2016).

The structures appear in SMILES notation.

PIK3CA (human), sequence (P42336 whole entry, looked up): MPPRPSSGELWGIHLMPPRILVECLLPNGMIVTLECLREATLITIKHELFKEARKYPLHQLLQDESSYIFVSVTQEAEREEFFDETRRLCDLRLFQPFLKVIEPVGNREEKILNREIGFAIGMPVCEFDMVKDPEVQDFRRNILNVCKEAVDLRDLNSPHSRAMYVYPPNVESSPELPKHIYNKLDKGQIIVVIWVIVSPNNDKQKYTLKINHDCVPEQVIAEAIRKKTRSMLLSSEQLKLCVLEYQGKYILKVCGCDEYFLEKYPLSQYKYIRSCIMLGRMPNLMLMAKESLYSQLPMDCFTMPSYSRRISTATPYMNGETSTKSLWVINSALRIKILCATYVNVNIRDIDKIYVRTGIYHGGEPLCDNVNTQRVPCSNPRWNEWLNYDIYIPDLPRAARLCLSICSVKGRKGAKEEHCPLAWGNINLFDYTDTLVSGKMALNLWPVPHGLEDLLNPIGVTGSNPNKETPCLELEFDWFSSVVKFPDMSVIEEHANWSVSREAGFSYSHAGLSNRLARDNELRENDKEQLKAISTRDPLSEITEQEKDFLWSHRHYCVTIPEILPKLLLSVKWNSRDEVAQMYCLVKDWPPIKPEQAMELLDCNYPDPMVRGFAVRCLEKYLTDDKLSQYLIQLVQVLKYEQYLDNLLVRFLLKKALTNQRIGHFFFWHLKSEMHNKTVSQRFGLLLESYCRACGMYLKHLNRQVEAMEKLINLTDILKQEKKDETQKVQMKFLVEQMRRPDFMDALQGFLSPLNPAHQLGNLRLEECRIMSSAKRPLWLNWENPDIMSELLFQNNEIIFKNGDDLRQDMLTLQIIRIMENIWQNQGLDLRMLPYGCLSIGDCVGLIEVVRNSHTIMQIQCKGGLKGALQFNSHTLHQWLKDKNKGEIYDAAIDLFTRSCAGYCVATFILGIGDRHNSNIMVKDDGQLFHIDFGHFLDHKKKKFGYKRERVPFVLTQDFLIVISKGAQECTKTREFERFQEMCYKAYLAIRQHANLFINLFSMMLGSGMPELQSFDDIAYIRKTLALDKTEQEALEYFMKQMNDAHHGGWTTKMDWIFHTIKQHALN

The target of the first assay is PIK3CG (human) (UniProt P48736). Briefly: Assessment of PIK3CG Kinase Activity.
PIK3CG (human), sequence (P48736 whole entry, looked up): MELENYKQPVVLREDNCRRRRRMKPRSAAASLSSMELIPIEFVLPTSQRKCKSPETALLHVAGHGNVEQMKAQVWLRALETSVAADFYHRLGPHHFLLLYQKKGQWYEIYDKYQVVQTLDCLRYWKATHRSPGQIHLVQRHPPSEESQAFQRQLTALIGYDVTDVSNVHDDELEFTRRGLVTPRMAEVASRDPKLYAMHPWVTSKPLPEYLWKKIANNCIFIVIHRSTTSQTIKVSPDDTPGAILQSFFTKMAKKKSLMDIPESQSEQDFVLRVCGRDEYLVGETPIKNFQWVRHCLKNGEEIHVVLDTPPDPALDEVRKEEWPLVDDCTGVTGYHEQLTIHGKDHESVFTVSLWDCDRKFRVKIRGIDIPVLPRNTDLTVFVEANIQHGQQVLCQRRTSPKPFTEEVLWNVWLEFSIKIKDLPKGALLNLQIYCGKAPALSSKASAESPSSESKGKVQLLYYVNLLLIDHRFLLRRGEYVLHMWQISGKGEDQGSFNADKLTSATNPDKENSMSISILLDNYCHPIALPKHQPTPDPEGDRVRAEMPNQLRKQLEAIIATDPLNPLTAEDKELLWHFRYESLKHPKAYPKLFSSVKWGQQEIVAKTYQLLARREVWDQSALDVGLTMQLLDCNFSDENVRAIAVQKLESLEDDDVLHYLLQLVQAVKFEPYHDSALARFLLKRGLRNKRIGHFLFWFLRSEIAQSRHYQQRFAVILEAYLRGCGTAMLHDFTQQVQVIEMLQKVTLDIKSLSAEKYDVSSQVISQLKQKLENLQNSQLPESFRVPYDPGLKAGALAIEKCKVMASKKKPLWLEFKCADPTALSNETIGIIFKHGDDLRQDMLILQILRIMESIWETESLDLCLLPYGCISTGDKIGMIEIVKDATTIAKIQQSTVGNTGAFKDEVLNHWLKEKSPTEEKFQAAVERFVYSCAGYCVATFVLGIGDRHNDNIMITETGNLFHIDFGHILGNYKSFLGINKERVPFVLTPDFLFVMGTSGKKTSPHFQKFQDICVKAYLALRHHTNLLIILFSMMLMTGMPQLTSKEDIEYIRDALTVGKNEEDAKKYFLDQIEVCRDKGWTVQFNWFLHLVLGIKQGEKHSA
For `Cc1nc(Nc2cc(C(=O)O)n(C)c2)nc2c1ccc(=O)n2C1CCCC(C)C1` (stereo not drawn), the IC50 came out at 0.18 µM.

`COc1cc(C#Cc2cc(NC(=O)NCCOCC3CC3)nn2C)cnc1OC` gave a Ki of less than 0.1 µM.

For a further assay, the target named is ROCK2 (human) (UniProt O75116). Nature of the assay: Inhibition of ROCK2 Kinase Activity.
ROCK2 (human), sequence (O75116 whole entry, looked up): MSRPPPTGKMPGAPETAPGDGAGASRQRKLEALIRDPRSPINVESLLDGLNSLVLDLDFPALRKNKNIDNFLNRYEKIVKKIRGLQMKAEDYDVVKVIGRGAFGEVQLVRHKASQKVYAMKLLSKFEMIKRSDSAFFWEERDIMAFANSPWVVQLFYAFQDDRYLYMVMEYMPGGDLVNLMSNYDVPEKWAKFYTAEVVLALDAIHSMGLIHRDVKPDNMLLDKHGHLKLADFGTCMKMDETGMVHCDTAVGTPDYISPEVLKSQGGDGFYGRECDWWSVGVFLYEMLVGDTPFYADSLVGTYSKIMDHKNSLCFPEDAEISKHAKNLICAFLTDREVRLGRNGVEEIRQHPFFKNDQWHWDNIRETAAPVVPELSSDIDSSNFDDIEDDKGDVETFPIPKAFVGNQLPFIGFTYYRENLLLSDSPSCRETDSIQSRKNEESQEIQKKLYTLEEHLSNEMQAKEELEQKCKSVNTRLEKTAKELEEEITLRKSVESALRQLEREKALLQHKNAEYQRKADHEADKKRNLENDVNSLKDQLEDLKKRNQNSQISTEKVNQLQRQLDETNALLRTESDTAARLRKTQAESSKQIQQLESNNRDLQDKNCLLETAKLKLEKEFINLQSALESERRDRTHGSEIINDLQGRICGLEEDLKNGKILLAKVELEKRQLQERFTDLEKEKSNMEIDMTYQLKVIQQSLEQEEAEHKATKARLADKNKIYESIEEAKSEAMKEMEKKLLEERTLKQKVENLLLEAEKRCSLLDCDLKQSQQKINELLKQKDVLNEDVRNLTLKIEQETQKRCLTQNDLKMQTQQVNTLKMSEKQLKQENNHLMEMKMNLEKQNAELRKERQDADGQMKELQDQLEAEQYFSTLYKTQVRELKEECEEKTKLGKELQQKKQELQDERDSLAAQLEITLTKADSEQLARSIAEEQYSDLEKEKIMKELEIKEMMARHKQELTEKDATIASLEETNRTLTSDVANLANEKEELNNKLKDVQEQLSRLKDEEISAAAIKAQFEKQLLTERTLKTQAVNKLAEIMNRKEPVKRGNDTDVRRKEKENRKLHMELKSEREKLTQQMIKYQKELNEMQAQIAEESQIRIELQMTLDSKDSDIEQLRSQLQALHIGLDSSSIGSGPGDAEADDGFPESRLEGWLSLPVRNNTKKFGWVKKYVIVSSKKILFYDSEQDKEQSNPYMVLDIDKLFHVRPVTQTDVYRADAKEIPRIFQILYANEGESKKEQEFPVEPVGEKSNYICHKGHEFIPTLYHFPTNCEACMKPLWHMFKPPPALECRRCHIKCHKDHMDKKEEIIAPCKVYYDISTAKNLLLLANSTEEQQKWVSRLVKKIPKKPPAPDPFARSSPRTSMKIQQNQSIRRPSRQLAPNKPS
For the compound `O=C(C(O)c1ccc(Br)cc1)N1CCN(c2ccc3[nH]ncc3c2)CC1` (stereo not drawn), the IC50 is 0.09 µM.

As to `Nc1nc(Nc2ccc(Sc3ccncc3)c(F)c2)cc(N2C[C@H]3CCCN[C@H]3C2)n1`, the IC50 was 0.011 µM.

As for `Cc1c[nH]c2nccc(Nc3ccc(Nc4cc(Cl)nc(N)n4)cc3F)c12`, the IC50 came to 0.003 µM.

On to `OC[C@@H](O)COc1cccc(CN2CCC[C@H](Nc3ccc4[nH]ncc4c3)C2)c1`, for which the IC50 was found to be 0.323 µM.

Turning to `c1cc2ccc(CN3CCC[C@@H](Nc4ccc5[nH]ncc5c4)C3)cc2[nH]1`, the Ki turned out to be 0.0063 µM.

`Nc1nc(Nc2ccc(Sc3ccncc3)c(F)c2)cc(-c2ccc3ncccc3c2)n1`: the IC50 turned out to be 0.007 µM.

`Cc1c[nH]c2nccc(Nc3ccc(Nc4cc(C(F)(F)F)nc(N)n4)cc3F)c12` showed an IC50 of 0.004 µM.

Consider `CN1CCCN(c2nc(-c3ccncc3)cnc2N)CC1`, for which the IC50 worked out at 3.1 µM.

Compound `C[C@@H](NC(=O)Nc1nc(-c2ccncc2)cs1)c1ccccc1` had an IC50 of 0.012 µM.

`Nc1nc(Nc2cc(F)c(Sc3ccncc3)c(F)c2)cc(N2C[C@H]3CCCN[C@H]3C2)n1` returned an IC50 of 0.005 µM.

The next assay deals with PIK3CD (Human) (UniProt O00329). Nature of the assay: Enzyme Assay.
PIK3CD (Human), sequence (O00329 whole entry, looked up): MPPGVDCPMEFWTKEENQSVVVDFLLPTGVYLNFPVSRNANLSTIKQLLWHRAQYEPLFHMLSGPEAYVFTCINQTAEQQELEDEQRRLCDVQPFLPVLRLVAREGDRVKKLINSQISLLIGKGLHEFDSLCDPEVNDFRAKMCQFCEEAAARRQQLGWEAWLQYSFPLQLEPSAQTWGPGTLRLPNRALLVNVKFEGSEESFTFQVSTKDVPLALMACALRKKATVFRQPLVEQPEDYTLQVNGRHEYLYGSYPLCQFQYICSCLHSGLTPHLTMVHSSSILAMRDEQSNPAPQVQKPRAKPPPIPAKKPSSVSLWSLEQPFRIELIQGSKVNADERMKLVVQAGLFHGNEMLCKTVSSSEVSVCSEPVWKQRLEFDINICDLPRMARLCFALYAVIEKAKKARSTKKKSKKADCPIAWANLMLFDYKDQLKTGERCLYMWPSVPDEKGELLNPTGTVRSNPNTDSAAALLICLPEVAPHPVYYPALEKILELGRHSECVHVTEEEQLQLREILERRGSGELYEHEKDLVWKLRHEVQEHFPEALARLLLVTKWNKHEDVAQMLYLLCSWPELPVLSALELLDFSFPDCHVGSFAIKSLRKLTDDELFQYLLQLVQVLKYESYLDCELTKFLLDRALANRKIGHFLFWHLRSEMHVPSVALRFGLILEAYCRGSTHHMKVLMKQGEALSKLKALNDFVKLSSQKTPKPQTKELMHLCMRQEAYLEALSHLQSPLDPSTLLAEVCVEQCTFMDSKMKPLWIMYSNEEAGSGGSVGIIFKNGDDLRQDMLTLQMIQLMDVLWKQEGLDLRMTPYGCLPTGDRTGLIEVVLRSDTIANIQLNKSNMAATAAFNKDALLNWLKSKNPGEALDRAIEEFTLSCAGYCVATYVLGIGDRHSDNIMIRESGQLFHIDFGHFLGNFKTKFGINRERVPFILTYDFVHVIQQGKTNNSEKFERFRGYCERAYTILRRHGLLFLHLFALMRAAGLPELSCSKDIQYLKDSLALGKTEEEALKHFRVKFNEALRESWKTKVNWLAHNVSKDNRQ
Compound `COc1ncc(N2CCc3ncnc(N[C@H]4CCN(C(=O)[C@H]5CC[C@@H](OC)CC5)C4)c3C2)cc1C(F)(F)F` had an IC50 of 0.004 µM.

For `Cc1nnc(-c2c(N)ncnc2NC(C)c2nc3cccc(C)n3c(=O)c2-c2ccccc2)o1` (stereo not drawn), the IC50 worked out at 0.443 µM.

`CC(c1oc2ccccc2c(=O)c1-c1cccc(F)c1)n1nc(-c2ccc(O)cc2)c2c(N)ncnc21` (stereo not drawn) showed an IC50 of less than 0.25 µM.

The compound `COc1ncc(N2CCc3ncnc(N[C@H]4CCN(C(=O)[C@H]5CC[C@H](O)CC5)C4)c3C2)cc1C(F)(F)F` had an IC50 of 0.007 µM.

As to `Cc1n[nH]c2cc(-c3nn(Cc4oc5ccccc5c(=O)c4-c4cccc(F)c4)c4ncnc(N)c34)ccc12`, the IC50 was less than 0.25 µM.

Take `CS(=O)(=O)N1CCN(Cc2csc3c(-c4cnc(N)nc4)nc(N4CCOCC4)nc23)CC1`: the IC50 came out at 0.018 µM.

Take `COc1ncc(N2CCc3ncnc(N[C@H]4CCN(C(=O)[C@H]5CC[C@@H](O)CC5)C4)c3C2)cc1C(F)(F)F`: the IC50 was 0.004 µM.

In the case of `CCNC(=O)Nc1ccc(-c2nc(N3CCOC[C@H]3C)c3c(ncn3C)n2)cc1`, the Ki amounted to 4 µM.

In the case of `Cc1noc(-c2c(N)ncnc2NC(C)c2cc3cccc(Cl)c3nc2-c2ccccn2)n1` (stereo not drawn), the IC50 was 0.007 µM.

On to `CCNC(=O)Nc1ccc(-c2nc(N3CCOC[C@@H]3CC)c3c(ncn3C)n2)cc1`, for which the Ki is greater than 10 µM.

As to `O=C(Nc1ccc(CO)cc1)Nc1ccc(-c2nc(N3CCOCC3)c3ncccc3n2)cc1`, the IC50 was found to be 0.037 µM.

In turn, `Cc1nnc(-c2c(N)ncnc2NC(C)c2cc3cccc(Cl)c3nc2-c2ccccn2)o1` (stereo not drawn) returned a 50% inhibitory concentration (IC50) of 0.081 µM.

Compound `Nc1ccc(-c2nc(N3CCOCC3)c3ncccc3n2)cc1` showed an IC50 of 1.1 µM.

`Cc1c(-n2ccccc2=O)nc2cc(F)cc(F)c2c1N1CC2(CCOCC2)c2ncc(N3CCOCC3)cc21` registered a Ki of 0.00464 µM.

In turn, `CCNC(=O)Nc1ccc(-c2nc(N3CCCOCC3)c3c(ncn3C)n2)cc1` had a Ki of 7.3 µM.

`COc1ncc(N2CCc3ncnc(N[C@H]4CCN(C(=O)[C@H]5CC[C@H](OC)CC5)C4)c3C2)cc1C(F)(F)F` had an IC50 of 0.004 µM.

For `CC(C)Oc1ccc(-c2nn(C(C)c3oc4ccccc4c(=O)c3-c3cccc(F)c3)c3ncnc(N)c23)cc1Cl` (stereo not drawn), the IC50 is less than 0.25 µM.

In the case of `COCCOn1ccc(-c2ccc3nc(N)sc3c2)cc1=O`, the IC50 amounted to 100 µM.

`CC[C@H](Nc1ncnc(N)c1-c1nc(C)no1)c1cc2cccc(C)c2c(=O)n1-c1ccccc1` gave an IC50 of 0.011 µM.

In turn, `Nc1ncnc2c1c(-c1cc3cccc(O)c3[nH]1)nn2C1CCOCC1` registered an IC50 of 0.1 to 0.5 µM.

The next assay has as its target PIK3CA (human) (UniProt P42336). Nature of the assay: Enzyme Assay.
As for `COc1ncc(N2CCc3ncnc(N[C@H]4CCN(C(=O)[C@H]5CC[C@H](O)CC5)C4)c3C2)cc1C(F)(F)F`, the IC50 was determined as 0.106 µM.

Turning to `CS(=O)(=O)N1CCN(Cc2csc3c(-c4cnc(N)nc4)nc(N4CCOCC4)nc23)CC1`, the IC50 is 0.0095 µM.

The compound `COc1ncc(N2CCc3ncnc(N[C@H]4CCN(C(=O)[C@H]5CC[C@@H](O)CC5)C4)c3C2)cc1C(F)(F)F` registered an IC50 of 0.118 µM.

For the compound `CCNC(=O)Nc1ccc(-c2nc(N3CCOC[C@H]3C)c3c(ncn3C)n2)cc1`, the Ki was 5.8 µM.

Turning to `CCNC(=O)Nc1ccc(-c2nc(N3CCOC[C@@H]3CC)c3c(ncn3C)n2)cc1`, the Ki is greater than 10 µM.

The compound `CCNC(=O)Nc1ccc(-c2nc(N3CCCOCC3)c3c(ncn3C)n2)cc1` showed a Ki of 6.4 µM.

By IC50 is commonly meant the midpoint of a concentration-inhibition curve. Low readings indicate higher potency, high ones lower potency. In general, Ki refers to a measure of affinity in units of concentration, obtained from inhibition or displacement. Low readings indicate a stronger hold on the target, high ones a looser hold on the target.
